Data published in PubChem BioAssay AID1963433 (Molecular Pharmacology Branch, DTP, NCI, 2024).

Tested on: 772245-204-R-J1-PDC complex spheroid growth
Assay: Anticancer human tumor 772245-204-R-J1-PDC patient-derived rhabdomyosarcoma cell line growth inhibition [Asc]
Conditions: for IC50: curve of first compound; for viability, T/C: stronger effect = lower value
Outline: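 Tumor cells were grown as complex spheroids with human endothelial cells (HUVEC) and human mesenchymal stem cells as stroma. Agents were tested alone and in combination, in half-log steps down from the clinical Cmax, or from 10 microM where Cmax was unknown.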

[1] = second compound 0.1 µM, first compound 0.00316 µM
[2] = second compound 0.1 µM, first compound 0.01 µM
[3] = second compound 0.1 µM, first compound 0.0316 µM
[4] = second compound 0.1 µM, first compound 0.1 µM
[5] = second compound 0.316 µM, first compound 0.00316 µM
[6] = second compound 0.316 µM, first compound 0.01 µM
[7] = second compound 0.316 µM, first compound 0.0316 µM
[8] = second compound 0.316 µM, first compound 0.1 µM
[9] = second compound 1 µM, first compound 0.00316 µM
[10] = second compound 1 µM, first compound 0.01 µM
[11] = second compound 1 µM, first compound 0.0316 µM
[12] = second compound 1 µM, first compound 0.1 µM
[13] = second compound 3.16 µM, first compound 0.00316 µM
[14] = second compound 3.16 µM, first compound 0.01 µM
[15] = second compound 3.16 µM, first compound 0.0316 µM
[16] = second compound 3.16 µM, first compound 0.1 µM
[17] = second compound 10 µM, first compound 0.00316 µM
[18] = second compound 10 µM, first compound 0.01 µM
[19] = second compound 10 µM, first compound 0.0316 µM
[20] = second compound 10 µM, first compound 0.1 µM
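Also: compound exposure lasted seven days.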
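For viability, T/C in this document: 100% = DMSO vehicle control viability.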

For `NC(=O)C(=Cn1cnc(-c2cc(C(F)(F)F)cc(C(F)(F)F)c2)n1)c1cncnc1` + Cc1c(S(C)(=O)=O)c(-c2cc(F)cc(N3CCN(c4ccc(NS(=O)(=O)c5ccc(NC(CCN6CCC(C(=O)OCCCP(=O)(O)O)CC6)CSc6ccccc6)c(S(=O)(=O)C(F)(F)F)c5)cc4)CC3)c2)c(-c2ccc(Cl)cc2)n1C(C)C, the IC50 (second compound 0.1 µM) was 22 nM, the IC50 (second compound 0.316 µM) was 6.58 nM and the IC50 (second compound 1 µM) was < 0.949 nM. The IC50 (second compound 3.16 µM) was < 0.949 nM, the IC50 (second compound 10 µM) was < 0.949 nM and the viability, T/C (second compound 0.1 µM, first compound 0.000949 µM) was 80.2%. For the same compound, the viability, T/C (second compound 0.1 µM, first compound 0.003 µM) was 72.2%, the viability, T/C (second compound 0.1 µM, first compound 0.00949 µM) was 64% and the viability, T/C (second compound 0.1 µM, first compound 0.03 µM) was 43.2%. For the same compound, the viability, T/C (second compound 0.1 µM, first compound 0.0949 µM) was 29.6%, the viability, T/C (second compound 0.1 µM, first compound 0.3 µM) was 12.6% and the viability, T/C (second compound 0.316 µM, first compound 0.000949 µM) was 58.1%. For the same compound, the viability, T/C (second compound 0.316 µM, first compound 0.003 µM) was 64%, the viability, T/C (second compound 0.316 µM, first compound 0.00949 µM) was 42.1% and the viability, T/C (second compound 0.316 µM, first compound 0.03 µM) was 29.2%. The viability, T/C (second compound 0.316 µM, first compound 0.0949 µM) was 10.3%, the viability, T/C (second compound 0.316 µM, first compound 0.3 µM) was 3.73% and the viability, T/C (second compound 1 µM, first compound 0.000949 µM) was 41.2%. For the same compound, the viability, T/C (second compound 1 µM, first compound 0.003 µM) was 34.8%, the viability, T/C (second compound 1 µM, first compound 0.00949 µM) was 24% and the viability, T/C (second compound 1 µM, first compound 0.03 µM) was 8.43%. It also gave a viability, T/C (second compound 1 µM, first compound 0.0949 µM) of 4.25%, a viability, T/C (second compound 1 µM, first compound 0.3 µM) of 1.91% and a viability, T/C (second compound 3.16 µM, first compound 0.000949 µM) of 42.5%. The viability, T/C (second compound 3.16 µM, first compound 0.003 µM) was 27.8%, the viability, T/C (second compound 3.16 µM, first compound 0.00949 µM) was 23.9% and the viability, T/C (second compound 3.16 µM, first compound 0.03 µM) was 2.44%. The viability, T/C (second compound 3.16 µM, first compound 0.0949 µM) was 0.58%, the viability, T/C (second compound 3.16 µM, first compound 0.3 µM) was 0.81% and the viability, T/C (second compound 10 µM, first compound 0.000949 µM) was 32.9%. It also gave a viability, T/C (second compound 10 µM, first compound 0.003 µM) of 39.9%, a viability, T/C (second compound 10 µM, first compound 0.00949 µM) of 22.2% and a viability, T/C (second compound 10 µM, first compound 0.03 µM) of 5.99%. The viability, T/C (second compound 10 µM, first compound 0.0949 µM) was 0.9% and the viability, T/C (second compound 10 µM, first compound 0.3 µM) was 0.59%.
With `NC1CCC(NC2CC2c2ccccc2)CC1` (stereo not given) + Cc1c(S(C)(=O)=O)c(-c2cc(F)cc(N3CCN(c4ccc(NS(=O)(=O)c5ccc(NC(CCN6CCC(C(=O)OCCCP(=O)(O)O)CC6)CSc6ccccc6)c(S(=O)(=O)C(F)(F)F)c5)cc4)CC3)c2)c(-c2ccc(Cl)cc2)n1C(C)C the IC50 (second compound 0.1 µM) was > 100 nM, the IC50 (second compound 0.316 µM) was < 0.316 nM and the IC50 (second compound 1 µM) was < 0.316 nM. For the same compound, the IC50 (second compound 3.16 µM) was < 0.316 nM, the IC50 (second compound 10 µM) was < 0.316 nM and the viability, T/C (second compound 0.1 µM, first compound 0.000316 µM) was 69.1%. It also gave a viability, T/C (second compound 0.1 µM, first compound 0.001 µM) of 67.9%, a viability, T/C [1] of 66% and a viability, T/C [2] of 59.6%. The viability, T/C [3] was 66.6%, the viability, T/C [4] was 61.2% and the viability, T/C (second compound 0.316 µM, first compound 0.000316 µM) was 42.7%. It also gave a viability, T/C (second compound 0.316 µM, first compound 0.001 µM) of 48.9%, a viability, T/C [5] of 41.6% and a viability, T/C [6] of 38.2%. The viability, T/C [7] was 38.1%, the viability, T/C [8] was 45.2% and the viability, T/C (second compound 1 µM, first compound 0.000316 µM) was 34.1%. The viability, T/C (second compound 1 µM, first compound 0.001 µM) was 24.2%, the viability, T/C [9] was 22.6% and the viability, T/C [10] was 24.2%. It also gave a viability, T/C [11] of 26.3%, a viability, T/C [12] of 24.8% and a viability, T/C (second compound 3.16 µM, first compound 0.000316 µM) of 24.2%. It also gave a viability, T/C (second compound 3.16 µM, first compound 0.001 µM) of 18.1%, a viability, T/C [13] of 17.8% and a viability, T/C [14] of 18.7%. It also gave a viability, T/C [15] of 13.7%, a viability, T/C [16] of 13.2% and a viability, T/C (second compound 10 µM, first compound 0.000316 µM) of 20.4%. The viability, T/C (second compound 10 µM, first compound 0.001 µM) was 18.1%, the viability, T/C [17] was 15.8% and the viability, T/C [18] was 18.4%. It also gave a viability, T/C [19] of 16.8% and a viability, T/C [20] of 13.2%.
Compound `O=C(c1ccc(F)c(F)c1Nc1ccc(I)cc1F)N1CC(O)([C@@H]2CCCCN2)C1` + Cc1c(S(C)(=O)=O)c(-c2cc(F)cc(N3CCN(c4ccc(NS(=O)(=O)c5ccc(NC(CCN6CCC(C(=O)OCCCP(=O)(O)O)CC6)CSc6ccccc6)c(S(=O)(=O)C(F)(F)F)c5)cc4)CC3)c2)c(-c2ccc(Cl)cc2)n1C(C)C has an IC50 (second compound 0.1 µM) of 673 nM, an IC50 (second compound 0.316 µM) of 364 nM and an IC50 (second compound 1 µM) of 350 nM. For the same compound, the IC50 (second compound 3.16 µM) was 224 nM, the IC50 (second compound 10 µM) was 342 nM and the viability, T/C [1] was 85.4%. It also gave a viability, T/C [2] of 85.7%, a viability, T/C [3] of 85% and a viability, T/C [4] of 72.4%. It also gave a viability, T/C (second compound 0.1 µM, first compound 0.316 µM) of 80.5%, a viability, T/C (second compound 0.1 µM, first compound 1 µM) of 34.2% and a viability, T/C [5] of 76.3%. The viability, T/C [6] was 76.7%, the viability, T/C [7] was 64.4% and the viability, T/C [8] was 67.5%. The viability, T/C (second compound 0.316 µM, first compound 0.316 µM) was 55.9%, the viability, T/C (second compound 0.316 µM, first compound 1 µM) was 19.9% and the viability, T/C [9] was 61.1%. It also gave a viability, T/C [10] of 66%, a viability, T/C [11] of 66.4% and a viability, T/C [12] of 69%. It also gave a viability, T/C (second compound 1 µM, first compound 0.316 µM) of 50.8%, a viability, T/C (second compound 1 µM, first compound 1 µM) of 13.4% and a viability, T/C [13] of 57.1%. The viability, T/C [14] was 60.7%, the viability, T/C [15] was 56.6% and the viability, T/C [16] was 59.7%. The viability, T/C (second compound 3.16 µM, first compound 0.316 µM) was 45.9%, the viability, T/C (second compound 3.16 µM, first compound 1 µM) was 8.31% and the viability, T/C [17] was 40.2%. The viability, T/C [18] was 44.9%, the viability, T/C [19] was 57.1% and the viability, T/C [20] was 78.8%. It also gave a viability, T/C (second compound 10 µM, first compound 0.316 µM) of 52.2% and a viability, T/C (second compound 10 µM, first compound 1 µM) of 4.51%.
